# Source: patent publication US20230024384A1, “C[…] COMPOUND FOR TREATING FRAGILE X SYNDROME OR RELATED DEVELOPMENTAL DISORDERS” (NEUROVENTI, priority 2020, published 2023)
# Columns and labels:
# Format in all cases: in vivo, mouse
# [1] = system: Fmr1-deficient animal model (fragile X syndrome); experiment: home-cage test in Fmr1-deficient animal model; settings: Fmr1 KO mice, lisuride once daily for 5 days, sniffing measured for 15 minutes, FIG. 2
# Protocol: (§1) Purchased a 5-week-old Fmr1 knockout mouse (Jackson Laboratory, USA) weighing about 22 g to 24 g, and acclimatized to an environment with a temperature of 23±2° C. and humidity of 55±10% and a light-dark cycle of 12 hours while allowing them to freely consume water and feed (Experimental Animal Center, Konkuk University). As experimental animals, wild-type (WT) with normal FMRP expression and male KO mice lacking FMRP (fragile X mental retardation protein) expression (fragile X syndrome; FXS) were used. Dosing and experiments were performed according to the age of the week. Dosing was performed at the same time. Behavioral experiments were conducted 30 minutes after administration. […] Meanwhile, 0.25 (v/v) % DMSO was intraperitoneally administered to the control group.
# A home-cage test evaluates sociability in the breeding cage removing the possible confounders of stress due to abrupt changes in the environment. After raising the group of animals to be tested together, a wire cage was placed inside the home cage and allowed the animals to acclimatize for 30 minutes. A stimulus mouse was placed in a wire cage and the duration of sniffing by the subject mice to the wire cage was measured for 15 minutes.
# [2] = system: Fmr1-deficient animal model (fragile X syndrome); experiment: pre-pulse (pre-wave) suppression test in Fmr1-deficient animal model; settings: Fmr1 KO mice, lisuride intraperitoneally, FIG. 3
# Protocol: as §1
# The startle response was confirmed using an Fmr1-deficient animal model. […] Thereafter, sensorimotor gating was evaluated through a pre-wave suppression test (converted using Equation 1 below).
# (§2) Pre-pulse suppression (%)=100−[(startle response to pre-stimulus+stimulus)/(start-up response to stimulus)]*100 [Equation 1]
# [3] = system: animal model treated with apomorphine in wild-type mice; experiment: pre-wave suppression test in apomorphine-treated wild-type mice; settings: lisuride intraperitoneally after apomorphine, FIG. 5
# Protocol: as §2
# (§3) Startle response was confirmed in an animal model treated with apomorphine or MK-801 in wild-type mice. […] Thereafter, sensorimotor gating was evaluated through a pre-wave suppression test (converted using Equation 1 above).
# [4] = system: Fmr1-deficient animal model (fragile X syndrome); experiment: three-chamber test in Fmr1-deficient animal model; settings: Fmr1 KO mice, lisuride intraperitoneally 50 ug/kg, test 30 minutes after administration, FIG. 1
# Protocol: as §1
# If the animal model spent more time with a novel mouse rather than a familiar mouse, it is judged to be social. The test animal was exposed to the stimulus mouse for 10 minutes, and to a new stimulus mouse (novel) for another 10 minutes. In this case, the old mouse is called familiar and the new mouse is called a novel mouse. The time the test mouse explored each stimulus mouse was measured and expressed as %. As a result of the experiment, it was confirmed that the wild type spent more time with the novel mouse than the familiar mouse, indicating normal sociability. […]
# [5] = system: animal model treated with MK-801 in wild-type mice; experiment: pre-wave suppression test in MK-801-treated wild-type mice; settings: lisuride intraperitoneally after MK-801, FIG. 6
# Protocol: as §2, §3
smiles,measurement,setting,value
"CCN(CC)C(=O)N[C@H]1C=C2c3cccc4[nH]cc(c34)C[C@H]2N(C)C1 [lisuride, 1,1-Diethyl-3-(7-methyl-4,6,6a,7,8,9-hexahydro-indolo [4,3-fg]quinolin-9-yl)-urea]",sniffing time to wire cage with stimulus mouse (sociability),[1],sniffing time increased again
same,pre-pulse suppression (sensorimotor gating),[2],pre-pulse suppression was restored
same,pre-pulse suppression (sensorimotor gating),[3],pre-pulse suppression was restored
same,sociability: time spent with novel mouse versus familiar mouse,[4],more time was spent with the novel mouse than with the familiar mouse
same,pre-pulse suppression (sensorimotor gating),[5],pre-pulse suppression was restored
